Assay results taken from US10689377B2 (Mirati Therapeutics, Inc., priority 2017, dated 2020).
Structures can show the parent of a compound that is named as a salt.

Target: KRas G12C (Homo sapiens, UniProt P01116, G12C)
Test: Cellular inhibition of KRas G12C measured by Phospho-ERK in NCI-H358 cells
Format: cell-based
Conditions: pERK(Thr202/Tyr204) normalized with GAPDH, NCI-H358 cells, 3 hours; read-out: IC50
Description: Cells were plated in poly-D-Lysine coated 96-well plates at a concentration of 50,000 cells/well and allowed to attach for 8-12 hours. Diluted compounds were then added at a final concentration of 0.5% DMSO. After 3 hours, the medium was removed, 150 μL of 4% formaldehyde was added and the plates were incubated for 20 minutes. The plates were washed with PBS, and permeabilized using 150 μL of ice cold 100% methanol for 10 minutes. Non-specific antibody binding to the plates was blocked using 100 μL Licor Blocking Buffer (Li-Cor Biotechnology, Lincoln Nebr.) for 1 hour at room temperature. Positive control samples and samples lacking cells were parallel processed with test samples as standards.
The amount Phospho-ERK was determined using an antibody specific for the phosphorylated form of ERK and compared to the amount of GAPDH. […] The plates were incubated for 2 hours at room temperature. The plates were washed with PBS+0.05% Tween 20.
Secondary antibodies used to visualize primary antibodies were added as follows: Anti-rabbit-680 diluted 1:1000 and Anti-mouse-800 diluted 1:1000 in Licor Block+0.05% Tween 20 and incubated for 1 hour at room temperature. The plates were washed with PBS+0.05% Tween 20. A 100 μL aliquot of PBS was added to each well and the plates were read on a LICOR AERIUS plate reader.
The pERK(Thr202/Tyr204) signal was normalized with the GAPDH signal and percent of DMSO control values were calculated. IC50 values were generated using a 4 parameter fit of the dose response curve. Key: “A”≥0.0001-≤1 μM; “B”>1 μM and ND=not determined.

Sequence of KRas G12C (P01116 1-188 isoform P01116-2 G12C): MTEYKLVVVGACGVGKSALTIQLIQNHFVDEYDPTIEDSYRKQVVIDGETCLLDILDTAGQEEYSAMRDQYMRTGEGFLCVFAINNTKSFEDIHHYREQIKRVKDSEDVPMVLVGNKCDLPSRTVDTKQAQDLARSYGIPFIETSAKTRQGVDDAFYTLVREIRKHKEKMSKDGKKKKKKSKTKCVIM

| Structure (SMILES) | IC50 |
| --- | --- |
| C=CC(=O)N1CCN(c2nc(OCCCCN3CCOCC3)nc3c2CCN(c2cc(O)cc4ccccc24)C3)CC1 [Example 35, 1-(4-(7-(3-hydroxynaphthalen-1-yl)-2-(4-morpholinobutoxy)-5,6,7,8-tetrahydropyrido[3,4-d]pyrimidin-4-yl)piperazin-1-yl)prop-2-en-1-one trifluoroacetate] | > 1000 nM |
| C=CC(=O)N1CCN(c2nc(OCCCCN(C)C)nc3c2CCN(c2cc(O)cc4ccccc24)C3)CC1 [Example 40, 1-(4-(2-(4-(dimethylamino)butoxy)-7-(3-hydroxynaphthalen-1-yl)-5,6,7,8-tetrahydropyrido[3,4-d]pyrimidin-4-yl)piperazin-1-yl)prop-2-en-1-one] | 0.1 to 1000 nM |
| C=CC(=O)N1CCN(c2nc(OCCCN3CCOCC3)nc3c2CCN(c2cc(O)cc(C4CC4)c2)C3)CC1 [Example 41, 1-(4-(7-(3-cyclopropyl-5-hydroxyphenyl)-2-(3-morpholinopropoxy)-5,6,7,8-tetrahydropyrido[3,4-d]pyrimidin-4-yl)piperazin-1-yl)prop-2-en-1-one trifluoroacetate] | > 1000 nM |
| C=CC(=O)N1CCN(c2nc(OCCCN3CCOCC3)nc3c2CCN(c2cc(O)ccc2F)C3)CC1 [Example 42, 1-(4-(7-(2-fluoro-5-hydroxyphenyl)-2-(3-morpholinopropoxy)-5,6,7,8-tetrahydropyrido[3,4-d]pyrimidin-4-yl)piperazin-1-yl)prop-2-en-1-one] | > 1000 nM |
| C=CC(=O)N1CCN(c2nc(OCCCN3CCOCC3)nc3c2CCN(c2cc(O)cc4cc(C)ccc24)C3)CC1 [Example 43, 1-(4-(7-(3-hydroxy-6-methylnaphthalen-1-yl)-2-(3-morpholinopropoxy)-5,6,7,8-tetrahydropyrido[3,4-d]pyrimidin-4-yl)piperazin-1-yl)prop-2-en-1-one] | > 1000 nM |
| C=CC(=O)N1CCN(c2nc(OCCCN3CCOCC3)nc3c2CCN(c2c(C)ccc4[nH]ncc24)C3)CC1 [Example 44, 1-(4-(7-(5-methyl-1H-indazol-4-yl)-2-(3-morpholinopropoxy)-5,6,7,8-tetrahydropyrido[3,4-d]pyrimidin-4-yl)piperazin-1-yl)prop-2-en-1-one] | > 1000 nM |
| C=CC(=O)N1[C@@H]2CC[C@H]1CN(c1nc(OC(C)CN(C)C)nc3c1CCN(c1cc(O)cc4ccccc14)C3)C2 (stereo partly drawn) [Example 45, 1-((1R,5S)-3-(2-((1-(dimethylamino)propan-2-yl)oxy)-7-(3-hydroxynaphthalen-1-yl)-5,6,7,8-tetrahydropyrido[3,4-d]pyrimidin-4-yl)-3,8-diazabicyclo[3.2.1]octan-8-yl)prop-2-en-1-one] | > 1000 nM |
| C=CC(=O)N1C[C@H]2CC[C@@H](C1)N2c1nc(OC(C)CN(C)C)nc2c1CCN(c1cc(O)cc3ccccc13)C2 (stereo partly drawn) [Example 46, 1-((1R,5S)-8-(2-((1-(dimethylamino)propan-2-yl)oxy)-7-(3-hydroxynaphthalen-1-yl)-5,6,7,8-tetrahydropyrido[3,4-d]pyrimidin-4-yl)-3,8-diazabicyclo[3.2.1]octan-3-yl)prop-2-en-1-one] | > 1000 nM |
| C=CC(=O)N1CCN(c2nc(OCCN(C)C)nc3c2CCN(c2cc(O)cc4ccccc24)C3C)CC1 (stereo not drawn) [Example 47, 1-(4-(2-(2-(dimethylamino)ethoxy)-7-(3-hydroxynaphthalen-1-yl)-8-methyl-5,6,7,8-tetrahydropyrido[3,4-d]pyrimidin-4-yl)piperazin-1-yl)prop-2-en-1-one] | > 1000 nM |
| C=CC(=O)N1CCN(c2nc(OCCN(C)C)nc3c2CC(C)N(c2cc(O)cc4ccccc24)C3)CC1 (stereo not drawn) [Example 48, 1-(4-(2-(2-(dimethylamino)ethoxy)-7-(3-hydroxynaphthalen-1-yl)-6-methyl-5,6,7,8-tetrahydropyrido[3,4-d]pyrimidin-4-yl)piperazin-1-yl)prop-2-en-1-one trifluoroacetate] | > 1000 nM |
| C=CC(=O)N1CCN(c2nc(OCCN3CCC(F)C3)nc3c2CCN(c2cc(O)cc4ccccc24)C3)CC1 (stereo not drawn) [Example 49, 1-(4-(2-(2-(3-fluoropyrrolidin-1-yl)ethoxy)-7-(3-hydroxynaphthalen-1-yl)-5,6,7,8-tetrahydropyrido[3,4-d]pyrimidin-4-yl)piperazin-1-yl)prop-2-en-1-one] | > 1000 nM |
| C=CC(=O)N1CCN(c2nc(OCCN(C)C)nc3c2CCN(c2cc(O)cc4ccccc24)C3)CC1CO (stereo not drawn) [Example 50, 1-(4-(2-(2-(dimethylamino)ethoxy)-7-(3-hydroxynaphthalen-1-yl)-5,6,7,8-tetrahydropyrido [3,4-d]pyrimidin-4-yl)-2-(hydroxymethyl)piperazin-1-yl)prop-2-en-1-one] | > 1000 nM |
| C=CC(=O)N1CCN(c2nc(OCCN(C)C)nc3c2CCN(c2cc(O)cc4ccccc24)C3)CC1C(=O)N(C)C (stereo not drawn) [Example 51, 1-acryloyl-4-(2-(2-(dimethylamino)ethoxy)-7-(3-hydroxynaphthalen-1-yl)-5,6,7,8-tetrahydropyrido[3,4-d]pyrimidin-4-yl)-N,N-dimethylpiperazine-2-carboxamide] | > 1000 nM |
| C=CC(=O)N1CCN(c2nc(OCCN(C)C)nc3c2CCN(c2cc(O)cc4ccccc24)C3)C(CO)C1 (stereo not drawn) [Example 53, 1-(4-(2-(2-(dimethylamino)ethoxy)-7-(3-hydroxynaphthalen-1-yl)-5,6,7,8-tetrahydropyrido[3,4-d]pyrimidin-4-yl)-3-(hydroxymethyl)piperazin-1-yl)prop-2-en-1-one] | > 1000 nM |
| C=CC(=O)N1CCN(c2ncnc3c2CCN(c2nc(N)cc4ccccc24)C3)CC1 [Example 54, 1-[4-[7-(3-amino-1-isoquinolyl)-6,8-dihydro-5H-pyrido[3,4-d]pyrimidin-4-yl]piperazin-1-yl]prop-2-en-1-one] | > 1000 nM |

Next, values leading:

| IC50 | Structure (SMILES) |
| --- | --- |
| > 1000 nM | C=CC(=O)N1CCN(c2nc(N3CCN(CCO)CC3)nc3c2CCN(c2cc(O)cc4ccccc24)C3)CC1 [Example 26, 1-(4-(2-(4-(2-hydroxyethyl)piperazin-1-yl)-7-(3-hydroxynaphthalen-1-yl)-5,6,7,8-tetrahydropyrido[3,4-d]pyrimidin-4-yl)piperazin-1-yl)prop-2-en-1-one] |
| > 1000 nM | C=CC(=O)N1CCN(c2nc(OCCN3CCS(=O)(=O)CC3)nc3c2CCN(c2cc(O)cc4ccccc24)C3)CC1 [Example 33, 1-(4-(2-(2-(1,1-dioxidothiomorpholino)ethoxy)-7-(3-hydroxynaphthalen-1-yl)-5,6,7,8-tetrahydropyrido[3,4-d]pyrimidin-4-yl)piperazin-1-yl)prop-2-en-1-one trifluoroacetate] |
| > 1000 nM | C=CC(=O)N1CCN(c2nc(OCCCN3CCS(=O)(=O)CC3)nc3c2CCN(c2cc(O)cc4ccccc24)C3)CC1 [Example 34, 1-(4-(2-(3-(1,1-dioxidothiomorpholino)propoxy)-7-(3-hydroxynaphthalen-1-yl)-5,6,7,8-tetrahydropyrido[3,4-d]pyrimidin-4-yl)piperazin-1-yl)prop-2-en-1-one trifluoroacetate] |
| > 1000 nM | C=CC(=O)N1CCN(c2nc(O[C@H](C)CN3CCN(C(C)=O)CC3)nc3c2CCN(c2cc(O)cc4ccccc24)C3)CC1 [Example 36, (R)-1-(4-(2-((1-(4-acetylpiperazin-1-yl)propan-2-yl)oxy)-7-(3-hydroxynaphthalen-1-yl)-5,6,7,8-tetrahydropyrido[3,4-d]pyrimidin-4-yl)piperazin-1-yl)prop-2-en-1-one] |
| > 1000 nM | C=CC(=O)N1CCN(c2nc(OCCN3CCN(C(C)=O)CC3)nc3c2CCN(c2cc(O)cc4ccccc24)C3)CC1 [Example 37, 1-(4-(2-(2-(4-acetylpiperazin-1-yl)ethoxy)-7-(3-hydroxynaphthalen-1-yl)-5,6,7,8-tetrahydropyrido[3,4-d]pyrimidin-4-yl)piperazin-1-yl)prop-2-en-1-one] |
| 0.1 to 1000 nM | C=CC(=O)N1CCN(c2nc(OCCCN3CCCCC3)nc3c2CCN(c2cc(O)cc4ccccc24)C3)CC1 [Example 38, 1-(4-(7-(3-hydroxynaphthalen-1-yl)-2-(3-(piperidin-1-yl)propoxy)-5,6,7,8-tetrahydropyrido[3,4-d]pyrimidin-4-yl)piperazin-1-yl)prop-2-en-1-one] |
| 0.1 to 1000 nM | C=CC(=O)N1CCN(c2nc(OCCCN3CCCC3)nc3c2CCN(c2cc(O)cc4ccccc24)C3)CC1 [Example 39, 1-(4-(7-(3-hydroxynaphthalen-1-yl)-2-(3-(pyrrolidin-1-yl)propoxy)-5,6,7,8-tetrahydropyrido[3,4-d]pyrimidin-4-yl)piperazin-1-yl)prop-2-en-1-one] |
| 0.1 to 1000 nM | C=CC(=O)N1CCN(c2nc(OCCN3CCCCC3)nc3c2CCN(c2cc(O)cc4ccccc24)C3)CC1 [Example 52, 1-[4-[7-(3-hydroxy-1-naphthyl)-2-[2-(1-piperidyl)ethoxy]-6,8-dihydro-5H-pyrido[3,4-d]pyrimidin-4-yl]piperazin-1-yl]prop-2-en-1-one] |
| 0.1 to 1000 nM | C=CC(=O)N1CCN(c2nc(OCC(CO)N(C)C)nc3c2CCN(c2cc(O)cc4ccccc24)C3)CC1 (stereo not drawn) [Example 55, 1-(4-(2-(2-(dimethylamino)-3-hydroxypropoxy)-7-(3-hydroxynaphthalen-1-yl)-5,6,7,8-tetrahydropyrido[3,4-d]pyrimidin-4-yl)piperazin-1-yl)prop-2-en-1-one] |
